Laboratory results taken from patent EP0781268B1, “DERIVATIVES OF 2-AMINO-1,2,3,4-TETRAHYDRONAPHTHALENE ACTIVE ON THE CARDIOVASCULAR SYSTEM” (ZAMBON GROUP S.p.A., priority 1994, dated 1996).
Counter-ions that a name gives are not always drawn.

How the values were obtained:
[1] = target: T1, D2 receptor (Rattus norvegicus, UniProt P61169); assay: biochemical; assay type: binding; details: rat striated membranes; [3H]-domperidone 0.3 nM; BSA 0.01%; 37°C for 30 minutes; read-out: Affinity [K1 (nM)] D2 [^3H]-domperidone
T1 construct: from tissue; host or cells: rat brain striatum membranes
T1 sequence (P61169 whole entry): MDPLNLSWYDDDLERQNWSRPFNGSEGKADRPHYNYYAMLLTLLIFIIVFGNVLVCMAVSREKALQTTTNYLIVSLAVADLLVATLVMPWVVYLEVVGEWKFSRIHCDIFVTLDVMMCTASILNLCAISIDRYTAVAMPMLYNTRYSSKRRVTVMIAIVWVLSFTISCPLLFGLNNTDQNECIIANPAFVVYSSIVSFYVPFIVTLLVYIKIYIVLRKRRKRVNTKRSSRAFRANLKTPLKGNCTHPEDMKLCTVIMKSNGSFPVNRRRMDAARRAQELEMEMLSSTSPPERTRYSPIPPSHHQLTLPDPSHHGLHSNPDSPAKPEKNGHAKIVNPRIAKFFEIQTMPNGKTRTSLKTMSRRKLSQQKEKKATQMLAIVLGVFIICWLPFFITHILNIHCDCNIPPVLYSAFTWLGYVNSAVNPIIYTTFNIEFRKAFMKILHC
Experimental: The tissue were homogenized in 50 mM Tris/HCl buffer at pH 7.4 (1:100 w/v).
The homogenate was centrifuged and the pellet resuspended, recentrifuged and resuspended again in 50 mM Tris/HCl buffer at pH 7.4 containing 120 mM NaCl, 5mM KCl, 2 mM CaCl2 and 1 mM MgCl2.
Furthermore, bovine serum albumine (BSA) (0.01%) was added.
The mixture was incubated at 37°C for 30 minutes for each concentration of tested compounds.

[2] = system: D2-like (REA); assay: D2-like activity in the Rabbit Ear Artery (REA) test, isolated arterial rings; set-up: species or system Male New Zealand rabbits; details: agonist activity; electrically stimulated ear artery rings (10 Hz, 1 msec, 40-80 mA); compounds cumulatively administered
Experimental: Arterial rings were prepared according to the method described by […] al., Science, 1978, 443 199, modified as follows. Male New Zealand rabbits weighing 2.5-3 Kg were sacrificed by intravenous injection of an excess of pentobarbital sodium and exsanguinated. The two ears were taken away and the central ear artery was dissected into 3 mm long rings. These preparations were set up in a 25 ml organ bath containing Krebs solution (mM/l): NaCl 118, KCl 4.7, CaCl2 2.5, MgSO4 1.2, NaHCO3 25, KH2PO4 1.2, glucose 11.1, equilibrated with 95% O2-5% CO2 and maintained at 35±1°C. Krebs solution was medicated with EDTA (10 μM) to prevent cathecolamine oxydation, desipramine (0.1 μM) and corticosterone (30 μM), to block neuronal and extraneuronal cathecolamine uptake. The preparations were electrically stimulated (10 Hz, 1 msec, 40-80 mA, 500 msec duration) at 5 minutes intervals. The tested compounds were cumulatively administered. Dopamine and dopexamine were used as reference substances.

[3] = target: T2, D1 receptor (Rattus norvegicus, UniProt P18901); assay: biochemical; assay type: binding; details: rat striated membranes; 0.2 nM [3H]-SCH23390; 37°C for 20 minutes; read-out: Affinity [K1 (nM)] D1 [^3H]-SCH23390
T2 construct: from tissue; host or cells: rat brain striatum membranes
T2 sequence (P18901 whole entry): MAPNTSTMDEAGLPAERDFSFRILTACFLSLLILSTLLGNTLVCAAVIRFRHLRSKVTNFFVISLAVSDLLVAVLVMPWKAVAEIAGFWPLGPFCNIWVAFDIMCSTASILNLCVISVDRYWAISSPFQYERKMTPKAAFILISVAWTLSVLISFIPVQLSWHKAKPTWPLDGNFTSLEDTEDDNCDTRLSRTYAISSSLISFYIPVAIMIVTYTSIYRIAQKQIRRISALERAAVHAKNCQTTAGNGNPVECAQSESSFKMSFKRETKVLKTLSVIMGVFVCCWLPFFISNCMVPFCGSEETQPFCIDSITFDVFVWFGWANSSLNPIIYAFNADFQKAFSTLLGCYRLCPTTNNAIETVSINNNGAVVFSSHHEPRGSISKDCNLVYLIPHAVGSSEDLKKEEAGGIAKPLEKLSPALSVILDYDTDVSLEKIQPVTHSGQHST
Experimental: The conditions of standard incubation (volume 1000 µl) for the test in which [^3H]-SCH23390 was used were the following: 50 mM Tris/HCl buffer (pH.7.4), 0.2 nM [^3H]-SCH23390, a membrane preparation of 130-140 µg proteins/ml.
The mixture was incubated with different concentrations of the tested compounds at 37°C for 20 minutes, filtered under vacuum through Whatman GF/C filters and then washed 4 times with 5 ml of 50 mM Tris/HCl buffer (pH 7.4) cooled with ice.

[4] = system: D1-like (RSA); assay: D1-like activity in the Rabbit Splenic Artery (RSA) test, isolated arterial rings; details: agonist activity; arterial preparations contracted with U46619 0.1 µM; compounds cumulatively administered
Experimental: Arterial rings were prepared according to Semeraro et al., Naunyn. Schmied. Arch. Pharmacol., 1990, 342 539. […] The tested compounds were cumulatively administered. Dopamine and dopexamine were used as reference substances.

[5] = Fitton and Benfield, Drugs, 39(2), 308-330 (1990); cited from earlier work

Row | SMILES | Ki [1] [nM] | D2-like (REA) pD2 [2] | Ki [3] [nM] | D1-like (RSA) pD2 [4] | absorption when administered by oral route [5]
1 | CCCN(CCCCNCCc1ccccc1)[C@H]1CCc2c(ccc(O)c2O)C1 [Compound 8, (S)-N-propyl-N-[4-(2-phenyletylamino)butyl]-5,6-dihydroxy-1,2,3,4--tetrahydro-2-naphthylamine dihydrobromide] | 1 | 8.2 | 361 | 6.4 | 
2 | Br.Br.CCCN(CCCCCCNCCc1ccccc1O)[C@H]1CCc2c(ccc(O)c2O)C1 [Compound 15, (S)-N-propyl-N-[6-[2-(2-hydroxyphenyl)ethylamino]hexyl]-5,6-dihydroxy-1,2,3,4-tetrahydro-2-naphthylamine dihydrobromide] | 0.4 | 9.2 | 33 | 7.3 | 
3 | CCCN(CCCCCCCCNCCc1ccc(O)c(O)c1)[C@H]1CCc2c(ccc(O)c2O)C1 [Compound 7, dihydrobromide] | 0.5 |  | 27 |  | 
4 | CCCN(CCCCCCNCCc1ccccc1)[C@H]1CCc2c(ccc(O)c2O)C1.Cl.Cl [Compound 10, (S)-N-propyl-N-[6-(2-phenylethylamino)hexyl]-5,6-dihydroxy-1,2,3,4-tetrahydro-2-naphthylamine dihydrochloride] | 0.1 | 9.2 | 40 | 7.2 | 
5 | Br.Br.CCCN(CCCCCCNCCc1ccc(O)cc1)[C@H]1CCc2c(ccc(O)c2O)C1 [Compound 2, (S)-N-propyl-N-[6-[2-(4-hydroxyphenyl)ethylamino)hexyl]-5,6-dihydroxy-1,2,3,4-tetrahydro-2-naphthylamine dihydrobromide] | 0.2 | 8.8 | 10 | 8.4 | 
6 | Br.Br.CCCN(CCCCCCNCCc1ccc(O)c(O)c1)[C@@H]1CCc2cc(O)c(O)cc2C1 [Compound 13, (R)-N-propyl-N-[6-[2-(3,4-dihydroxyphenyl)ethylamino]hexyl]-6,7-dihydroxy-1,2,3,4-tetrahydro-2-naphthylamine dihydrobromide] | 0.8 | 9.4 | 43 | 7.7 | 
7 | Br.Br.CCCN(CCCCCCNCCc1ccc(O)cc1)[C@H]1CCc2c(O)cccc2C1 [Compound 9, (S)-N-propyl-N-[6-[2-(4-hydroxyphenyl)ethylamino]hexyl]-5-hydroxy-1,2,3,4-tetrahydro-2-naphthylamine dihydrobromide] |  | 9.1 |  |  | 
8 | CCCN(CCCCCCNCCc1ccccc1)[C@H]1CCc2cc(O)c(O)cc2C1 [Compound 11, (S)-N-propyl-N-[6-(2-phenylethylamino)hexyl]-6,7-dihydroxy-1,2,3,4--tetrahydro-2-naphthylamine dihydrochloride] | 0.5 | 8.4 | 89 | 6.2 | 
9 | CCCN(CCCCCCNCCCc1ccccc1)[C@H]1CCc2c(ccc(O)c2O)C1 [Compound 12, (S)-N-propyl-N-[6-(3-phenylpropylamino)hexyl]-5,6-dihydroxy-1,2,3,4--tetrahydro-2-naphthylamine dihydrochloride] |  | 8.6 |  | 7.1 | 
10 | Oc1ccc(CCNCCCCCCNCCc2ccccc2)cc1O [Dopexamine, dopexamine, reference compound] | 1220 | 6.3 |  | 6.1 | not absorbed
11 | NCCc1ccc(O)c(O)c1 [Dopamine, reference compound] |  | 7.8 |  | 6.4 | not absorbed
12 | CCCN(CCCCCCN(CCC)[C@H]1CCc2c(ccc(O)c2O)C1)CCc1ccc(O)cc1 [Compound 18, (S)-N-propyl-N-[2-(4-hydroxyphenyl)ethyl]-N'-propyl-N'-[2-(5,6-dihydroxy-1,2,3,4-tetrahydro)naphthyl]-1,6-hexandiamine dihydrobromide] | 0.9 | 9.2 | 107 | 6.6 | 
13 | Br.Br.CCCN(CCCCCCNCCc1ccc(O)c(O)c1)[C@H]1CCc2c(ccc(O)c2O)C1 [Compound 3, (S)-N-propyl-N-[6-[2-(3,4-dihydroxyphenyl)ethylamino)hexyl]-5,6-dihydroxy-1,2,3,4-tetrahydro-2-naphthylamine dihydrobromide] | 0.5 | 9.5 | 21 | 8.1 | 
14 | Br.Br.CCCN(CCCCCCNCCc1ccc(O)c(O)c1)[C@H]1CCc2c(O)cccc2C1 [Compound 6, (S)-N-propyl-N-[6-[2-(3,4-dihydroxyphenyl)ethylamino]hexyl]-5-hydroxy-1,2,3,4-tetrahydro-2-naphthylamine dihydrobromide] |  | 9.6 |  | 7.5 | 
15 | Br.Br.CCCN(CCCCCCNCCc1ccc(O)cc1)[C@@H]1CCc2cc(O)c(O)cc2C1 [Compound 14, (R)-N-propyl-N-[6-[2-(4-hydroxyphenyl)ethylamino]hexyl]-6,7-dihydroxy-1,2,3,4-tetrahydro-2-naphthylamine dihydrobromide] |  | 9.9 |  | 7.9 | 
16 | Br.Br.CCCN(CCCCCCNCCc1cccc(O)c1)[C@H]1CCc2c(ccc(O)c2O)C1 [Compound 1, (S)-N-propyl-N-[6-[2-(3-hydroxyphenyl)ethylamino)-hexyl]-5,6-dihydroxy-1,2,3,4-tetrahydro-2-naphthylamine dihydrobromide] | 0.5 | 8.8 | 21 | 8.1 | 
17 | Br.Br.CCCN(CCCCCCNCCc1cc(O)cc(O)c1)[C@H]1CCc2c(ccc(O)c2O)C1 [Compound 4, (S)-N-propyl-N-[6-[2-(3,5-dihydroxyphenyl)ethylamino)hexyl]-5,6-dihydroxy-1,2,3,4-tetrahydro-2-naphthylamine dihydrobromide] | 0.1 | 10.6 | 33 | 8.5 | 
18 | CCCN(CCCCCCN(C)CCc1ccccc1)[C@H]1CCc2c(ccc(O)c2O)C1 [Compound 5, (S)-N-methyl-N-(2-phenylethyl)-N'-propyl-N'-[2-(5,6-dihydroxy-1,2,3,4-tetrahydro)naphthyl]-1.6-hexandiamine dihydrobromide] | 0.3 |  | 69 |  | 
